Read-outs that look alike come from different tables or passages of the source. Each block holds one molecule with its values, some of them ahead of it. Non-standard residues stand in square brackets, D forms with d. Residues, ends and D or L forms follow the SMILES beside them. No end group written: not given here. pS = N[C@@H](COP(=O)(O)O)C(=O)O
What was measured:
[1] = biological target: 14-3-3 proteins (all seven isoforms); assay: Fluorescence polarization titration, statements across the 14-3-3 isoforms; assay type: binding, human
Protocol: TASK-1 or TASK-3 C-terminal fluorescent peptides (10 nM), comprising the last 15 amino acids of the respective C-termini, were titrated with concentrations of the 14-3-3 proteins ranging from 1 nM to 120 µM (Fig. 2), and the equilibrium dissociation constants of 14-3-3 proteins were calculated for TASK-1 phosphorylated at S393 (TASK-1 pS393; the conserved serine residue of the mode III 14-3-3-binding motif) and for TASK-3 phosphorylated at S373 (TASK-3 pS373) (Table 1). They ranged from 7.5±0.14 µM (mean±s.e.m.; 14-3-3β) to 49.4±2 µM (14-3-3τ) for TASK-1, whereas dissociation constants for TASK-3 ranged from 110±10 nM (14-3-3η) to 3.6±0.44 µM (14-3-3σ). The latter value matches the result determined previously by [Anders et al. (2013]) for the TASK-3 C-terminal hexapeptide using isothermal titration calorimetry. The dissociation constants of the seven mammalian 14-3-3 isoforms for the same TASK C-terminal peptide differed up to sevenfold for TASK-1-derived peptides and up to 30-fold for TASK-3-derived peptides. […] No binding of any 14-3-3 isoform to any TASK C-terminal peptide was observed when the peptides were not phosphorylated.
Fig. 2. […] Fluorescence polarization titration of fluorescein-labeled TASK-1 pS393 (black), TASK-3 pS373 (red) and TASK-3 pS373 ΔV374 (blue) peptide (10 nM) with increasing concentrations of the indicated 14-3-3 isoform. Fluorescein was excited at 485 nm, and fluorescence polarization was monitored at 535 nm. A monophasic fit was used to fit the data (Goodness-of-fit: R^2 from 0.76 to 0.98). No binding was detectable for the unphosphorylated TASK C-terminal peptides. The assay was repeated at least six times for each data point with two batches of independently purified 14-3-3 proteins. Error bars depict s.e.m. (A) 14-3-3β, (B) 14-3-3γ, (C) 14-3-3ε, (D) 14-3-3ζ, (E) 14-3-3η and (F) 14-3-3τ.
[Mant et al. (2011)] report that both serine residues present in the TASK-1 C-terminus can be phosphorylated in vitro by the recombinant catalytic subunit of PKA. […] Next, using fluorescence polarization titration, we determined how phosphorylation of S392 affects the affinity of all seven mammalian 14-3-3 proteins for the TASK-1 C-terminus – either when phosphorylated alone or in combination with phosphorylation of S393 (Table S1). […] Because all Kd values determined for TASK-1 pS392 and the doubly phosphorylated protein (at S392 and S393) were substantially higher than those measured for TASK-1 pS393 (Table S1), we conclude that phosphorylation of S392 cannot substitute for phosphorylated S393 in creating a high-affinity 14-3-3 binding site. On the contrary, our results are consistent with an inhibitory role for phosphorylation of S392 with respect to 14-3-3-mediated binding.
Interactions between 14-3-3 proteins and TASK-1 and TASK-3 C-terminal peptides and variants were investigated using a fluorescence polarization assay ([Moll et al., 2006]; [Muda et al., 2014]). Fluorescein-labeled peptides were purchased from Peps4Life Sciences (Heidelberg, Germany). All measurements were performed in buffer containing 20 mM MOPS, 150 mM NaCl, 0.005% (v/v) CHAPS pH 7.0, using a Fusion™ α-FP microtiter plate reader at room temperature in a 384-well microtiter plater (Optiplate 384, black; Packard, Meriden, CT). 14-3-3 proteins were serially diluted from 100 µM to 1 nM and incubated with 10 nM of fluorescently labeled peptide. The fluorescence polarization signal was detected for 2 s at an excitation wavelength of 485 nm with an emission fluorescence polarization filter wavelength of 535 nm and a photomultiplier voltage of 1100. Data were analyzed with GraphPad Prism 6.0 (GraphPad Software, San Diego, CA) by plotting the obtained fluorescence polarization signal in millipolarization units (mPol) against the logarithm of the 14-3-3 protein concentration. The data were then fitted using a monophasic fit.

[2] = biological target: T1, GST-tagged TASK-3 C-terminal 15 residues fusion protein, phosphorylated with PKA catalytic subunit (human, UniProt Q9NPC2 360-374); assay: SPR
T1 chain: {GST}-SFTDHQRLMKRRK[pS]V

[3] = biological target: TASK-1 pS392 C-terminal fluorescent peptide (human) (UniProt O14649); assay: fluorescence polarisation; 10 nM fluorescein-labelled peptide titrated with 14-3-3 protein (1 nM to 120 µM in the results, 100 µM to 1 nM in the methods); 20 mM MOPS, 150 mM NaCl, 0.005% (v/v) CHAPS pH 7.0; room temperature; monophasic fit
[4] = biological target: TASK-1 pS393 C-terminal fluorescent peptide (last 15 amino acids) (human) (UniProt O14649); assay: as above
[5] = fluorescence polarization, best of the seven isoforms, read-out: Kd of the highest-affinity 14-3-3 interaction

Molecule: CSCC[C@H](NC(=O)[C@H](CC(C)C)NC(=O)CNC(=O)[C@H](CCCNC(=N)N)NC(=O)[C@H](Cc1ccccc1)NC(=O)[C@@H](NC(=O)[C@H](CO)NC(=O)[C@H](CC(C)C)NC(=O)[C@H](CO)NC(=O)[C@@H](N)CS)[C@@H](C)O)C(=O)N[C@@H](CCCCN)C(=O)N[C@@H](CCCNC(=N)N)C(=O)N[C@@H](CCCNC(=N)N)C(=O)N[C@@H](CO)C(=O)N[C@@H](COP(=O)(O)O)C(=O)N[C@H](C(=O)O)C(C)C [TASK-1 pS393] (H-CSLSTFRGLMKRRS[pS]V-OH; N-terminus assumed)
fold lower affinity for 14-3-3 proteins than the TASK-3 C-terminus ([1]; fluorescence polarization, TASK-1 pS393 versus TASK-3 pS373): 10- to 100 fold
Kd [1, 5]: ~10 µM

Molecule: CSCC[C@H](NC(=O)[C@H](CC(C)C)NC(=O)CNC(=O)[C@H](CCCNC(=N)N)NC(=O)[C@H](Cc1ccccc1)NC(=O)[C@@H](NC(=O)[C@H](CO)NC(=O)[C@H](CC(C)C)NC(=O)[C@H](CO)NC(=O)[C@@H](N)CS)[C@@H](C)O)C(=O)N[C@@H](CCCCN)C(=O)N[C@@H](CCCNC(=N)N)C(=O)N[C@@H](CCCNC(=N)N)C(=O)N[C@@H](COP(=O)(O)O)C(=O)N[C@@H](CO)C(=O)N[C@H](C(=O)O)C(C)C [TASK-1 pS392] (H-CSLSTFRGLMKRR[pS]SV-OH)
Kd ([1]; fluorescence polarization titration, all seven 14-3-3 proteins, read-out: Kd values across the 14-3-3 proteins (approximate, Table S1)): ~100 µM

B1: 14-3-3ζ (natural protein)
chain: MDKNELVQKAKLAEQAERYDDMAACMKSVTEQGAELSNEERNLLSVAYKNVVGARRSSWRVVSSIEQKTEGAEKKQQMAREYREKIETELRDICNDVLSLLEKFLIPNASQAESKVFYLKMKGDYYRYLAEVAAGDDKKGIVDQSQQAYQEAFEISKKEMQPTHPIRLGLALNFSVFYYEILNSPEKACSLAKTAFDEAIAELDTLSEESYKDSTLIMQLLRDNLTLWTSDTQGDEAEAGEGGEN
Kd [2]: 0.221 µM
Kd [3]: 100 µM

B2: 14-3-3τ (natural protein)
chain: MEKTELIQKAKLAEQAERYDDMATCMKAVTEQGAELSNEERNLLSVAYKNVVGGRRSAWRVISSIEQKTDTSDKKLQLIKDYREKVESELRSICTTVLELLDKYLIANATNPESKVFYLKMKGDYFRYLAEVACGDDRKQTIDNSQGAYQEAFDISKKEMQPTHPIRLGLALNFSVFYYEILNNPELACTLAKTAFDEAIAELDTLNEDSYKDSTLIMQLLRDNLTLWTSDSAGEECDAAEGAEN
Kd [2]: 0.246 µM
Kd [3]: 100 µM
Kd [4]: 49.4 µM

Other lines, results leading:

Kd [1, 5]: ~0.1 µM
Molecule: CSCC[C@H](NC(=O)[C@H](CC(C)C)NC(=O)[C@H](CCCNC(=N)N)NC(=O)[C@H](CCC(N)=O)NC(=O)[C@H](Cc1c[nH]cn1)NC(=O)[C@H](CC(=O)O)NC(=O)[C@@H](NC(=O)[C@H](Cc1ccccc1)NC(=O)[C@H](CO)NC(=O)[C@@H](N)CS)[C@@H](C)O)C(=O)N[C@@H](CCCCN)C(=O)N[C@@H](CCCNC(=N)N)C(=O)N[C@@H](CCCNC(=N)N)C(=O)N[C@@H](CCCCN)C(=O)N[C@@H](COP(=O)(O)O)C(=O)N[C@H](C(=O)O)C(C)C [TASK-3 pS373] (H-CSFTDHQRLMKRRK[pS]V-OH; N-terminus assumed)

Kd values across the 14-3-3 proteins (approximate, Table S1) ([1]; fluorescence polarization titration, all seven 14-3-3 proteins): high micromolar range
Molecule: CSCC[C@H](NC(=O)[C@H](CC(C)C)NC(=O)CNC(=O)[C@H](CCCNC(=N)N)NC(=O)[C@H](Cc1ccccc1)NC(=O)[C@@H](NC(=O)[C@H](CO)NC(=O)[C@H](CC(C)C)NC(=O)[C@H](CO)NC(=O)[C@@H](N)CS)[C@@H](C)O)C(=O)N[C@@H](CCCCN)C(=O)N[C@@H](CCCNC(=N)N)C(=O)N[C@@H](CCCNC(=N)N)C(=O)N[C@@H](COP(=O)(O)O)C(=O)N[C@@H](COP(=O)(O)O)C(=O)N[C@H](C(=O)O)C(C)C [doubly phosphorylated peptide] (H-CSLSTFRGLMKRR[pS][pS]V-OH; N-terminus assumed)
